According to the CheMixHub viscosity set:

Assay: xn = mol fraction of the nth substance listed

C1=Cc2cccc3cccc1c23 + Cc1ccccc1
viscosity [mPa·s], 101 kPa
Settings | 303.15 K | 308.15 K | 313.15 K | 318.15 K
x1 = 0.1292 | 0.6888 | 0.6467 | 0.608 | 0.573
x1 = 0.195 | 0.794 | 0.74 | 0.6961 | 0.6516

CCCC[N+](CCCC)(CCCC)CCCC.[Br-] + OCCOCCO
viscosity [mPa·s]
Settings | 293.15 K | 303.15 K | 313.15 K | 323.15 K
100 kPa, x1 = 0.2 | – | 265.6 | 165.5 | 92.86
101 kPa, x2 = 0.667 | 203.9 | 150.6 | 87.28 | 57.39

C=C1CCC2CC1C2(C)C (stereo not given) + COC(C)(C)C
298.15 K, 101.33 kPa
Settings | viscosity [mPa·s]
x2 = 0.0493 | 1.485
x2 = 0.1076 | 1.364
x2 = 0.2248 | 1.142
x2 = 0.354 | 0.93
x2 = 0.439 | 0.8092
x2 = 0.5239 | 0.7038
x2 = 0.6457 | 0.5826
x2 = 0.7594 | 0.4855
x2 = 0.8663 | 0.41
x2 = 0.9007 | 0.3873
x2 = 0.9651 | 0.3495

C[C@H](O)C(=O)O + O
viscosity [mPa·s], 101 kPa
Settings | x1 = 0.000625 | x1 = 0.000941 | x1 = 0.00124 | x1 = 0.00156 | x1 = 0.001899 | x1 = 0.002188 | x1 = 0.002523 | x1 = 0.002822 | x1 = 0.003145
298.15 K | 0.898 | 0.902 | 0.906 | 0.91 | 0.914 | 0.917 | 0.922 | 0.926 | 0.929
308.15 K | 0.731 | 0.734 | 0.736 | 0.738 | 0.741 | 0.744 | 0.747 | 0.75 | 0.753
318.15 K | 0.601 | 0.602 | 0.604 | 0.605 | 0.607 | 0.61 | 0.612 | 0.614 | 0.616

C1CCC(C2CCCCC2)CC1 + C1CC[C@H]2CCCC[C@@H]2C1
viscosity [mPa·s], 102 kPa
Settings | x2 = 0.1185 | x2 = 0.2312 | x2 = 0.3405 | x2 = 0.4451 | x2 = 0.546 | x2 = 0.6433 | x2 = 0.7374 | x2 = 0.828 | x2 = 0.9154
293.15 K | 3.72 | 3.43 | 3.17 | 2.96 | 2.77 | 2.6 | 2.45 | 2.33 | 2.21
303.15 K | 2.95 | 2.74 | 2.56 | 2.4 | 2.27 | 2.15 | 2.03 | 1.94 | 1.85
313.15 K | 2.39 | 2.24 | 2.11 | 1.99 | 1.89 | 1.8 | 1.71 | 1.64 | 1.57
323.15 K | 1.98 | 1.87 | 1.77 | 1.68 | 1.6 | 1.52 | 1.46 | 1.4 | 1.34

Oc1cccc2ccccc12 + CCCCCOC(C)=O
Settings | viscosity [mPa·s]
298.15 K, 101 kPa, x2 = 0.5 | 1.549
